This note sets out measurements from ChEMBL document CHEMBL2401653, “Synthesis, structure-property relationships and pharmacokinetic evaluation of ethyl 6-aminonicotinate sulfonylureas as antagonists of the P2Y₁₂ receptor” (Eur J Med Chem, 2013).

Molecules are shown by their SMILES.

Series [1] can be described thus: Stability of the compound in MeCN assessed as compound remaining at room temperature. Format: physicochemical.
The nature of series [2]: 1-octanol-phosphate buffer distribution coefficient, log D of the compound at pH 7.4 after 2 days by shake flask method. Type of series: physicochemical.
In series [3] the target is T1, P2Y purinoceptor 12 (Homo sapiens, UniProt Q9H244).
Description: Displacement of [125I]-AZ11931285 from P2Y12 receptor (unknown origin) after 1 hr by scintillation counting analysis
For series [4], the target named is T1, P2Y purinoceptor 12. This is another data set of the same source.
Series [5] can be described thus: Apparent Permeability across apical to basolateral side in human Caco2 cells at 1 to 10 uM measured at 30 to 90 mins by LC/MS analysis. Format: ADME, cell-based. The conditions noted are these: Caco-2. On the technique in general: Caco-2 monolayers are a common model of the intestinal barrier.
The test system of series [6] is Liver microsomes. Briefly: Intrinsic clearance in rat liver microsomes at 1 umol/L by LC/MS analysis in presence of NADPH. Type of series: ADME, Microsome. The conditions noted are these: 1 µM. For orientation: Microsomes from liver hold many membrane-bound enzymes, among them those of drug oxidation.
In series [7] the test system is Liver microsomes. Briefly: Intrinsic clearance in human liver microsomes at 1 umol/L by LC/MS analysis in presence of NADPH. Format: ADME, Microsome. The conditions noted are these: 1 µM.

T1 sequence (Q9H244 whole entry): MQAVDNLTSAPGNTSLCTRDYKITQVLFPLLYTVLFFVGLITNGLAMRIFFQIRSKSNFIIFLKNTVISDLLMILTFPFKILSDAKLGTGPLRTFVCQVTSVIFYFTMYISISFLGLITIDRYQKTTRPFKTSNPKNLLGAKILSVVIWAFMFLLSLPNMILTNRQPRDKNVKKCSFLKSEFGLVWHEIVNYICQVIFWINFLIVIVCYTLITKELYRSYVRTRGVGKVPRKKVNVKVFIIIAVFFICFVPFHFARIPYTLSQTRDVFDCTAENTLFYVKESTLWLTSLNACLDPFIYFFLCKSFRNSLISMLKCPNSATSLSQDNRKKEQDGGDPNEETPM

In general, logD refers to lipophilicity at a set pH, counting ionised and neutral species. The low end stands for lower lipophilicity, the high end for higher lipophilicity. With `CCOC(=O)c1cnc(N2CCN(C(=O)Nc3ccccc3)CC2)c(C#N)c1`, the Stability entry in series [1] is “Stable”. Besides, in series [2], the logD at 48 h came to 3.7.

On to `CCOC(=O)c1cnc(N2CCN(C(=O)Nc3ccccc3)CC2)c(Cl)c1`, for which the Stability result in series [1] is reported as “Stable”.

As for `CCOC(=O)c1cnc(N2CCN(C(=O)Nc3ccccc3C)CC2)c(Cl)c1`, the Stability entry in series [1] is reported as “Stable”.

On to `CCOC(=O)c1cnc(N2CCN(C(=O)Nc3ccc(C)cc3)CC2)c(Cl)c1`, for which the Stability entry in series [1] was “Stable”.

For `CCOC(=O)c1cc(C#N)c(N2CCN(C(=O)NCc3ccc(F)cc3)CC2)nc1C(F)(F)F`, the Stability result in series [1] is on record as “Stable”. In addition, in series [2], the logD at 48 h came to 5.

What is called IC50 is the midpoint of a concentration-inhibition curve. Regarding `CCOC(=O)c1cc(C#N)c(N2CCCN(C(=O)NS(=O)(=O)c3ccc(Cl)s3)CC2)nc1C`, the Stability entry in series [1] is “Stable”. In addition, the IC50 against P2Y purinoceptor 12 [3] was found to be 0.63 µM; on P2Y purinoceptor 12 [4], 0.24 µM. The logD at 48 h in series [2] is 0.9.

As to `CCOC(=O)c1cc(C#N)c(N2C[C@@H]3C[C@H]2CN3C(=O)NS(=O)(=O)c2ccc(Cl)s2)nc1C`, in series [1], the Stability result is recorded as “Stable”. In addition, the values for the IC50 against P2Y purinoceptor 12 [3] and at P2Y purinoceptor 12 [4] were 2.9 µM and 0.69 µM, respectively.

As usually defined, the Papp A→B is how fast a substance crosses the layer from the apical side. `CCOC(=O)c1cc(C#N)c(N2CC3CN(C(=O)NS(=O)(=O)c4ccccc4)CC3C2)nc1C` (configuration not stated): the Papp A→B at up to 10 µM in series [5] is 0.39 ×10⁻⁶ cm/s. Moreover, the Stability entry in series [1] is “Stable”. The values for the IC50 on P2Y purinoceptor 12 [3] and against P2Y purinoceptor 12 [4] were 0.24 µM and 0.58 µM, respectively. Moreover, the Intrinsic clearance in the series on Liver microsomes [6] was below 19 µL/min/mg. Moreover, the Intrinsic clearance (CLint) in the series on Liver microsomes [7] is below 13 µL/min/mg. Also, in series [2], the logD at 48 h is 0.4.

With `COC(=O)c1cnc(N2CCN(C(=O)NS(=O)(=O)c3ccc(Cl)s3)CC2)c(Cl)c1`, the Stability result in series [1] is “Stable”. Moreover, the 50% inhibitory concentration (IC50) at P2Y purinoceptor 12 [3] came out at 0.65 µM; on P2Y purinoceptor 12 [4] it was 3.2 µM. Also, the logD at 48 h in series [2] is 0.9.

Turning to `CCCOC(=O)c1cnc(N2CCN(C(=O)NS(=O)(=O)c3ccc(Cl)s3)CC2)c(Cl)c1`, the Stability entry in series [1] is reported as “Stable”. The IC50 on P2Y purinoceptor 12 [3] was determined as 0.21 µM; against P2Y purinoceptor 12 [4], 0.24 µM. The molecule further registered a log distribution coefficient (logD) at 48 h in series [2] of 1.6.

As for `CCCCOC(=O)c1cnc(N2CCN(C(=O)NS(=O)(=O)c3ccc(Cl)s3)CC2)c(Cl)c1`, the Papp A→B at up to 10 µM in series [5] came out at 0.5 ×10⁻⁶ cm/s. In addition, the Stability entry in series [1] is reported as “Stable”. Besides, the values for the IC50 against P2Y purinoceptor 12 [3] and on P2Y purinoceptor 12 [4] were 0.095 µM and 0.15 µM, respectively. Further, the Intrinsic clearance (CLint) in the series with Liver microsomes [7] is above 70 µL/min/mg. Also, in series [2], the logD at 48 h stood at 2.3.

On to `CC(C)OC(=O)c1cnc(N2CCN(C(=O)NS(=O)(=O)c3ccc(Cl)s3)CC2)c(Cl)c1`, for which, in series [1], the Stability result was “Stable”. Besides, the IC50 was found to be 0.25 µM on P2Y purinoceptor 12 [3] and 0.53 µM on P2Y purinoceptor 12 [4]. In the series on Liver microsomes [6], the Intrinsic clearance is above 104 µL/min/mg. Further, the Intrinsic clearance (CLint) in the series with Liver microsomes [7] is above 70 µL/min/mg. Besides, the logD at 48 h in series [2] came out at 1.5.

Turning to `CC(C)CCOC(=O)c1cnc(N2CCN(C(=O)NS(=O)(=O)c3ccc(Cl)s3)CC2)c(Cl)c1`, in series [5], the Papp A→B at up to 10 µM was determined as 0.44 ×10⁻⁶ cm/s. For the same molecule, the Stability result in series [1] was “Stable”. The IC50 on P2Y purinoceptor 12 [3] stood at 0.14 µM; against P2Y purinoceptor 12 [4], 0.11 µM. The Intrinsic clearance (CLint) in the series on Liver microsomes [7] was above 70 µL/min/mg. The same molecule had a logD at 48 h in series [2] of 2.7.

Consider `CCCC(=O)c1cnc(N2CCN(C(=O)NS(=O)(=O)c3ccc(Cl)s3)CC2)c(Cl)c1`, for which the Papp A→B at up to 10 µM in series [5] turned out to be 0.16 ×10⁻⁶ cm/s. In addition, the Stability result in series [1] is listed as “Stable”. The half-inhibitory concentration (IC50) against P2Y purinoceptor 12 [3] came to 0.56 µM; against P2Y purinoceptor 12 [4], 0.89 µM. Besides, in the series with Liver microsomes [6], the Intrinsic clearance was above 104 µL/min/mg. In series [2], this molecule displayed a logD at 48 h of 1.3.

Take `O=C(c1cnc(N2CCN(C(=O)NS(=O)(=O)c3ccc(Cl)s3)CC2)c(Cl)c1)C1CC1`: in series [5], the Papp A→B at up to 10 µM stood at 0.12 ×10⁻⁶ cm/s. Also, the Stability result in series [1] is listed as “Stable”. Further, the IC50 amounted to 0.42 µM at P2Y purinoceptor 12 [3] and 1.3 µM at P2Y purinoceptor 12 [4]. Moreover, the Intrinsic clearance with Liver microsomes [6] is below 19 µL/min/mg. In the series with Liver microsomes [7], the Intrinsic clearance (CLint) was below 13 µL/min/mg. In addition, in series [2], the logD at 48 h was 1.2.

On to `CCCS(=O)(=O)c1cnc(N2CCN(C(=O)NS(=O)(=O)c3ccc(Cl)s3)CC2)c(Cl)c1`, for which the Stability entry in series [1] is “Stable”. Besides, the IC50 was 9.3 µM on P2Y purinoceptor 12 [3] and 14 µM on P2Y purinoceptor 12 [4].

As to `CCOC(=O)c1ccc(N2CCN(C(=O)NS(=O)(=O)c3ccc(Cl)s3)CC2)c(Cl)c1`, in series [1], the Stability result was “Stable”. For the same molecule, the IC50 on P2Y purinoceptor 12 [3] amounted to 0.66 µM; on P2Y purinoceptor 12 [4], 1.8 µM. Moreover, the Intrinsic clearance in the series with Liver microsomes [6] is above 104 µL/min/mg. Also, the logD at 48 h in series [2] stood at 1.5.

In the case of `C=C(NC(=O)N1CCN(c2ncc(C(=O)OCC)cc2Cl)CC1)c1ccccc1`, the Stability entry in series [1] is “Stable”. In addition, the IC50 was 2.4 µM against P2Y purinoceptor 12 [3] and 1.7 µM on P2Y purinoceptor 12 [4].

For `CCOC(=O)c1cc(C#N)c(N2CCN(C(=O)NS(=O)(=O)c3ccccc3C)CC2)nc1C(F)(F)F`, the Stability entry in series [1] is reported as “Stable”. Further, the IC50 against P2Y purinoceptor 12 [3] stood at 0.43 µM; against P2Y purinoceptor 12 [4] it was 0.38 µM.

As to `CCOC(=O)c1cc(C#N)c(N2CCN(C(=O)NS(=O)(=O)c3ccccc3Cl)CC2)nc1C(F)(F)F`, the Stability result in series [1] is “Stable”. Besides, the concentration for half-maximal inhibition (IC50) against P2Y purinoceptor 12 [3] amounted to 0.69 µM; against P2Y purinoceptor 12 [4] it was 0.47 µM.

Regarding `CCOC(=O)c1cc(C#N)c(N2CCN(C(=O)NS(=O)(=O)c3ccc(Cl)cc3)CC2)nc1C(F)(F)F`, the Papp A→B at up to 10 µM in series [5] stood at 0.13 ×10⁻⁶ cm/s. Further, in series [1], the Stability result is recorded as “Stable”. Besides, the IC50 is 0.068 µM against P2Y purinoceptor 12 [3] and 0.097 µM against P2Y purinoceptor 12 [4]. The Intrinsic clearance in the series on Liver microsomes [6] is above 104 µL/min/mg. Further, the Intrinsic clearance (CLint) in the series with Liver microsomes [7] is above 70 µL/min/mg.

For the molecule `CCOC(=O)c1cc(C#N)c(N2CCN(C(=O)NS(=O)(=O)c3ccc(F)cc3)CC2)nc1C(F)(F)F`, the Papp A→B at up to 10 µM in series [5] is 0.053 ×10⁻⁶ cm/s. In addition, the Stability result in series [1] is listed as “Stable”. The IC50 against P2Y purinoceptor 12 [3] was determined as 0.23 µM; at P2Y purinoceptor 12 [4], 0.21 µM. The Intrinsic clearance in the series with Liver microsomes [6] was above 104 µL/min/mg. For the same molecule, in series [2], the logD at 48 h amounted to 0.4.

`CCOC(=O)c1cnc(N2CCN(C(=O)NS(=O)(=O)c3ccccc3Cl)CC2)c(Cl)c1`: in series [1], the Stability entry is on record as “Stable”. Besides, the half-maximal inhibitory concentration (IC50) at P2Y purinoceptor 12 [3] came out at 0.87 µM; against P2Y purinoceptor 12 [4] it was 0.99 µM. In series [2], this molecule gave a logD at 48 h of 0.6.

`CCOC(=O)c1cc(C#N)c(N2CC(NC(=O)NS(=O)(=O)c3ccc(Cl)cc3)C2)nc1C`: in series [5], the Papp A→B at up to 10 µM stood at 1.2 ×10⁻⁶ cm/s. Also, the Stability result in series [1] is “Stable”. For the same molecule, the IC50 is 0.086 µM against P2Y purinoceptor 12 [3] and 0.078 µM against P2Y purinoceptor 12 [4]. For the same molecule, the Intrinsic clearance (CLint) in the series on Liver microsomes [7] is below 13 µL/min/mg. In addition, the logD at 48 h in series [2] was 1.1.

As to `CCOC(=O)c1cc(C#N)c(N2CCC(NC(=O)NS(=O)(=O)Cc3ccccc3)CC2)nc1C`, the Papp A→B at up to 10 µM in series [5] turned out to be 30 ×10⁻⁶ cm/s. Moreover, the Stability result in series [1] was “Stable”. The IC50 at P2Y purinoceptor 12 [3] was 0.088 µM; against P2Y purinoceptor 12 [4] it was 0.15 µM. The Intrinsic clearance with Liver microsomes [6] was above 104 µL/min/mg. Also, in series [2], the logD at 48 h came to 1.9.

Turning to `CCOC(=O)c1cnc(N2CCN(C(=S)Nc3ccccc3)CC2)c(Cl)c1`, the Stability result in series [1] is recorded as “Stable”. Moreover, the values for the IC50 on P2Y purinoceptor 12 [3] and on P2Y purinoceptor 12 [4] were 12 µM and 3.7 µM, respectively.

For the molecule `CCOC(=O)c1cnc(N2CCN(C(=O)NC(=O)c3ccccc3)CC2)c(Cl)c1`, the Stability result in series [1] is “Stable”. In addition, the IC50 against P2Y purinoceptor 12 [3] worked out at 9.9 µM; on P2Y purinoceptor 12 [4], 5.3 µM.

With `CCOC(=O)c1cnc(N2CCN(C(=S)NC(=O)c3ccccc3)CC2)c(Cl)c1`, the Stability entry in series [1] is on record as “Stable”. Moreover, the half-maximal inhibitory concentration (IC50) is 2.4 µM against P2Y purinoceptor 12 [3] and 0.99 µM on P2Y purinoceptor 12 [4].

On to `O=C(O)c1cnc(N2CCN(C(=O)NS(=O)(=O)c3ccccc3)CC2)c(Cl)c1`, for which the Stability result in series [1] is reported as “Stable”. Moreover, the IC50 against P2Y purinoceptor 12 [3] is above 33 µM. The logD at 48 h in series [2] was below 0.5.
